# Results published in US8569301B2, “6, 6-dioxo-6-thia-1, 4-diaza-naphthalenes as herbicides” (Syngenta Limited, priority 2009, dated 2013).
# What was measured:
# Assay type in all cases: in vivo
# Conditions in all cases: sprayed after 8 days cultivation, evaluated after 13 days, scores from 10 to 0 (10=total damage to plant; 0=no damage to plant)
# SETFA = test: Example B1 herbicidal action post-emergence, SETFA
# Experimental: (§1) Seeds of a variety of test species were sown in standard soil in pots. After 8 days cultivation (post-emergence) under controlled conditions in a glasshouse (at 24/16° C., day/night; 14 hours light; 65% humidity), the plants were sprayed with an aqueous spray solution derived from the formulation of the technical active ingredient in acetone/water (50:50) solution containing 0.5% Tween 20 (polyoxyethelyene sorbitan monolaurate, CAS RN 9005-64-5). The test plants were then grown under controlled conditions in a glasshouse (at 24/16° C., day/night; 14 hours light; 65% humidity) and watered twice daily. After 13 days, the test was evaluated and the assessed scores, from 10 to 0, are tabulated in Table B1 (10=total damage to plant; 0=no damage to plant).
# SOLNI = test: Example B1 herbicidal action post-emergence, SOLNI
# Experimental: as §1
# AMARE = test: Example B1 herbicidal action post-emergence, AMARE
# Experimental: as §1
# ECHCG = test: Example B1 herbicidal action post-emergence, ECHCG
# Experimental: as §1
# IPOHE = test: Example B1 herbicidal action post-emergence, IPOHE
# Experimental: as §1
SMILES,"assessed score, application post-emergence, SETFA (SETFA; Rate 1000 g/ha)","assessed score, application post-emergence, SOLNI (SOLNI; Rate 1000 g/ha)","assessed score, application post-emergence, AMARE (AMARE; Rate 1000 g/ha)","assessed score, application post-emergence, ECHCG (ECHCG; Rate 1000 g/ha)","assessed score, application post-emergence, IPOHE (IPOHE; Rate 1000 g/ha)","assessed score, application post-emergence, SETFA (SETFA; Rate 250 g/ha)","assessed score, application post-emergence, SOLNI (SOLNI; Rate 250 g/ha)","assessed score, application post-emergence, AMARE (AMARE; Rate 250 g/ha)","assessed score, application post-emergence, ECHCG (ECHCG; Rate 250 g/ha)","assessed score, application post-emergence, IPOHE (IPOHE; Rate 250 g/ha)"
C#CCC1c2nccnc2C(O)=C(c2c(Cl)cccc2C(F)(F)F)S1(=O)=O (racemic) [Compound E2],8,8,10,8,8,–,–,–,–,–
CC1c2nccnc2C(O)=C(c2c(Cl)cccc2C(F)(F)F)S1(=O)=O (racemic) [Compound E3],8,8,9,8,8,–,–,–,–,–
O=S1(=O)C(c2c(Cl)cccc2C(F)(F)F)=C(O)c2nccnc2C1CC(F)F (racemic) [Compound E4],6,8,9,6,7,–,–,–,–,–
CCC1c2nccnc2C(O)=C(c2cc(Cl)ccc2C(F)(F)F)S1(=O)=O (racemic) [Compound E6],3,8,8,5,7,–,–,–,–,–
O=S1(=O)C(c2cc(Cl)ccc2C(F)(F)F)=C(O)c2nccnc2C1CC(F)F (racemic) [Compound E7],–,–,–,–,–,2,7,6,2,7
"O=S1(=O)Cc2nccnc2C(O)=C1c1c(F)ccc(Cl)c1Cl [Compound C1, 7-(2,3-dichloro-6-fluoro-phenyl)-6,6-dioxo-5,6-dihydro-6-λ-6-thia-1,4-diaza-naphthalen-8-ol]",8,8,10,7,8,–,–,–,–,–
O=S1(=O)Cc2nccnc2C(O)=C1c1cc(C(F)(F)F)ccc1Cl [Compound C2],0,0,0,0,0,–,–,–,–,–
O=S1(=O)Cc2nccnc2C(O)=C1c1cc(Cl)cc(C(F)(F)F)c1 [Compound C3],0,0,0,0,0,–,–,–,–,–
Cc1cccc(F)c1C1=C(O)c2nccnc2CS1(=O)=O [Compound C4],5,4,7,3,2,–,–,–,–,–
COc1ccc(Cl)c(C2=C(O)c3nccnc3CS2(=O)=O)c1F [Compound C5],4,4,3,1,3,–,–,–,–,–
O=S1(=O)Cc2nccnc2C(O)=C1c1c(F)cccc1C(F)(F)F [Compound C6],2,3,4,1,0,–,–,–,–,–
"O=S1(=O)Cc2nccnc2C(O)=C1c1cc(Cl)ccc1C(F)(F)F [Compound C7, 7-(5-chloro-2-trifluoromethyl-phenyl)-6,6-dioxo-5,6-dihydro-6-thia-1,4-diaza-naphthalen-8-ol]",8,8,8,6,7,–,–,–,–,–
O=S1(=O)Cc2nccnc2C(O)=C1c1ccc(F)cc1Cl [Compound C8],5,7,5,3,1,–,–,–,–,–
O=S1(=O)Cc2nccnc2C(O)=C1c1ccccc1OC(F)F [Compound C9],7,4,6,3,1,–,–,–,–,–
O=S1(=O)Cc2nccnc2C(O)=C1c1cccc(F)c1C(F)(F)F [Compound C10],6,8,6,5,6,–,–,–,–,–
O=S1(=O)Cc2nccnc2C(O)=C1c1ccccc1C(F)(F)F [Compound C11],7,7,7,5,5,–,–,–,–,–
O=S1(=O)Cc2nccnc2C(O)=C1c1c(F)ccc(F)c1Cl [Compound C12],6,8,8,3,6,–,–,–,–,–
O=S1(=O)Cc2nccnc2C(O)=C1c1c(Cl)cccc1C(F)(F)F [Compound C13],8,2,8,8,8,–,–,–,–,–
O=S1(=O)Cc2nccnc2C(O)=C1c1ccccc1I [Compound C14],7,7,8,7,8,–,–,–,–,–
O=S1(=O)Cc2nccnc2C(O)=C1c1cc(F)ccc1Cl [Compound C15],6,8,7,5,3,–,–,–,–,–
O=S1(=O)Cc2nccnc2C(O)=C1c1cc(C(F)(F)F)ccc1C(F)(F)F [Compound C16],3,10,9,5,7,–,–,–,–,–
O=S1(=O)Cc2nccnc2C(O)=C1c1ccc(Cl)cc1C(F)(F)F [Compound C17],8,10,10,8,7,–,–,–,–,–
O=S1(=O)Cc2nccnc2C(O)=C1c1c(Cl)ccc(Cl)c1Cl [Compound C18],8,8,7,8,8,–,–,–,–,–
O=S1(=O)Cc2nccnc2C(O)=C1c1c(Cl)cccc1Cl [Compound C19],8,9,7,7,8,–,–,–,–,–
Cc1cc(C)c(C2=C(O)c3nccnc3CS2(=O)=O)c(C)c1 [Compound C20],4,7,1,4,7,–,–,–,–,–
"O=S1(=O)Cc2nccnc2C(O)=C1c1c(F)ccc(Br)c1Cl [Compound C21, 7-(3-bromo-2-chloro-6-fluoro-phenyl)-6,6-dioxo-5,6-dihydro-6-thia-1,4-diaza-naphthalen-8-ol]",7,10,9,7,8,–,–,–,–,–
O=S1(=O)Cc2nccnc2C(O)=C1c1ccc(Br)cc1C(F)(F)F [Compound C22],5,9,10,5,7,–,–,–,–,–
O=S1(=O)Cc2nccnc2C(O)=C1c1c(Cl)cc(Cl)cc1Cl [Compound C23],7,9,8,8,8,–,–,–,–,–
